The values below come from ChEMBL document CHEMBL5325456, “5-(4-Hydroxyphenyl)-3H-1,2-dithiole-3-thione derivatives of brefeldin A: Design, synthesis and cytotoxicity in MDA-MB-231 human breast cancer cells” (Bioorg Med Chem, 2023).

Data set [1] deals with MDA-MB-231. Description: Inhibition of cell adhesion in human MDA-MB-231 cells assessed as reduction in cell adhesion by measuring fluorescence intensity at 82.5 to 330 nM incubated for 48 hrs by flow cytometry analysis. It counts as functional, cell-based. Particulars: dose 82.5-330 nM. For orientation: Flow cytometry measures light scatter and fluorescence of single cells or particles in a stream.

Data set [2] relates to Cell membrane. Description: Induction of mitochondrial membrane potential loss in human MDA-MB-231 cells assessed as proportion of MMP decreased cells at 82.5 nM and measured for 48 hrs by JC-1 staining based flow cytometry assay (reference value: 4.40%). The format is subcellular. Also noted: scale not given: the % may be the effect or the level left.
The test system of data set [3] is MDA-MB-231. Description: Induction of DNA damage in human MDA-MB-231 cells assessed as tail DNA at 0.33 uM incubated for 48 hrs by Comet assay (reference value: 0.007 %). It counts as functional.
In data set [4] the test system is MDA-MB-231. Description: Inhibition of cell migration in human MDA-MB-231 cells assessed as wound healing rate at 0.165 uM measured immediately by scratch wound healing assay (Rvb= 871.53 +/- 3.02 %). The format is functional. Set-up: scale not given: the % may be the effect or the level left.
Data set [5] concerns MDA-MB-231. Description: Induction of cell cycle arrest in human MDA-MB-231 cells assessed as accumulation of cells at S phase at 0.165 uM incubated for 48 hrs by flow cytometry analysis (reference value: 36.51%). It counts as functional.
The test system of data set [6] is MDA-MB-231. Description: Induction of DNA damage in human MDA-MB-231 cells assessed as tail DNA at 0.165 uM incubated for 48 hrs by Comet assay (reference value: 0.007 %). It counts as functional.
Data set [7] in a line: Antiproliferative activity against human L02 cells assessed as reduction in cell viability incubated for 48 hrs by CCk-8 assay. It counts as toxicity, cell-based.
Data set [8] relates to MDA-MB-231. Description: Induction of cell cycle arrest in human MDA-MB-231 cells assessed as accumulation of cells at G1 phase at 0.165 uM incubated for 48 hrs by flow cytometry analysis (reference value: 47.44 %). It counts as functional.
Data set [9] concerns Cell membrane. Description: Induction of mitochondrial membrane potential loss in human MDA-MB-231 cells assessed as proportion of MMP decreased cells at 0.33 uM and measured for 48 hrs by JC-1 staining based flow cytometry assay (reference value: 4.40%). The format is subcellular. Also noted: scale not given: the % may be the effect or the level left.
Data set [10] concerns MDA-MB-231. Description: Induction of cell cycle arrest in human MDA-MB-231 cells assessed as accumulation of cells at S phase at 82.5 nM incubated for 48 hrs by flow cytometry analysis (reference value: 36.51%). It counts as functional.
For a further data set, the system named is HepG2. Description: Antiproliferative activity against human HepG2 cells assessed as reduction in cell viability incubated for 48 hrs by CCk-8 assay. The format is functional, cell-based. Particulars: HepG2, 48 h.

Activity calls are given as the source filed them. The rule behind the calls is not given here.

By IC50 is commonly meant the concentration that inhibits the measured activity by half. As to `C[C@H]1CCC/C=C/[C@@H]2C[C@H](O)C[C@H]2[C@H](OC(=O)CCCC(=O)OCCOc2ccc(-c3cc(=S)ss3)cc2)/C=C/C(=O)O1`, the inhibition entry in the data set with MDA-MB-231 [1] is “Active”. Further, the Activity was found to be 16.3% with Cell membrane [2]; 49.49% in the data set on MDA-MB-231 [3]; 830.55% with MDA-MB-231 [4]; 30.39% in the data set with MDA-MB-231 [5]; 39.11% with MDA-MB-231 [6]; 60.09% in the data set with MDA-MB-231 [8]. Further, the Activity turned out to be 49.8% with Cell membrane [9] and 30.23% with MDA-MB-231 [10]. Moreover, in data set [7], the IC50 at 48 h stood at 1750 nM. For the same compound, the IC50 in the data set with HepG2 was 750 nM.
